The values below come from patent US6969714B2, “Imidazolo-5-YL-2-anilino-pyrimidines as agents for the inhibition of the cell proliferation” (AstraZeneca AB, priority 2000, dated 2005).

The target in this experiment is T1, CDK2/Cyclin E (Homo sapiens, UniProt P24941).
T1 construct: The open reading frames of CDK2 and Cyclin E were isolated; made in house; host or cells: Sf21 (Spodoptera frugiperda) insect cells, baculovirus co-infection; the GST-Rb substrate was made in E. coli BL21 (DE3) pLysS
The experiment is described as follows: in vitro kinase assay, Scintillation Proximity Assay, incorporation of [γ-33-P]-ATP into GST-Rb. The format is biochemical. As to conditions: GST-Rb substrate, 0.2 μM ATP, 60 minutes at room temperature, read-out: CDK2 inhibitory activity IC50. How it is done:
The compounds were tested in an in vitro kinase assay in 96 well format using Scintillation Proximity Assay (SPA—obtained from Amersham) for measuring incorporation of [γ-33-P]-Adenosine Triphosphate into a test substrate (GST-Retinoblastoma protein; GST-Rb). In each well was placed the compound to be tested (diluted in DMSO and water to correct concentrations) and in control wells either roscovitine as an inhibitor control or DMSO as a positive control. […]
The plates were sealed with Topseal-S plate sealers, left for two hours then spun at 2500 rpm, 1124×g., for 5 minutes. The plates were read on a Topcount for 30 seconds per well. […]
E. coli paste was resuspended in 10 ml/g of NETN buffer (50 mM Tris pH 7.5, 120 mM NaCl, 1 mM EDTA, 0.5% v/v NP-40, 1 mM PMSF, 1 ug/ml leupeptin, 1 ug/ml aprotinin and 1 ug/ml pepstatin) and sonicated for 2×45 seconds per 100 ml homogenate. […] The final product was analysed by Sodium Dodeca Sulfate (SDS) PAGE (Polyacrylamide gel) using 8-16% Tris-Glycine gels (Novex, San Diego, USA).
The open reading frames of CDK2 and Cyclin E were isolated by reverse transcriptase-PCR using HeLa cell and activated T cell mRNA as a template and cloned into the insect expression vector pVL1393 (obtained from Invitrogen 1995 catalogue number: V1392-20). […]
In general terms: In a scintillation proximity assay essentially only radioactivity close to the scintillant gives light.

SMILES strings stand for the structures.

For the compound `Cn1cncc1-c1ccnc(Nc2ccccc2)n1` [Example 14, 2-Anilino-4-(1-methylimidazol-5-yl)pyrimidine], the IC50 (in general, the concentration needed to halve the response being measured) was 146 nM.
